Experimental data reported in patent US6319702A, “Nucleic acids encoding mutant human carboxypeptidase A enzymes” (Glaxo Wellcome, Inc., priority 1993, dated 2001).
Like-named read-outs stand apart in the source and are kept apart here.

Tests used:
[1] = Stability and biodistribution of prodrugs in vivo (HPLC of plasma and tissues); parameters: species or system mice (CD-1 nude; BALB/C where indicated); details: for stability in vivo (in words): mice
[2] = tested on: 268gly; assay: Enzyme kinetics of prodrugs with 268gly mutant of human CPA1 (coupled assay); format: biochemical; details: 268gly; 25° C., pH 7.4
Excerpt: (§1) As indicated herein, the in vivo stable prodrug of the present invention should be a better substrate for a mutant enzyme than the corresponding wild type enzyme in order for the stable prodrug to be activated selectively at the tumour. […] The most relevant kinetic constant in the table is the kcat/Km, which provides an estimate of the second order rate constant for the enzyme catalyzed conversion of prodrug to methotrexate. Thus, the larger the kcat/Km, the more efficient the enzyme with a particular substrate. […] Thus, the single mutation at 268 from thr to gly converted very poor substrates in the wild type enzyme to excellent substrates in the mutant enzyme. […] Thus, the compounds are much better substrates for the mutant enzyme than the wild type enzyme which permits very specific tumor targeted activation of the nontoxic, stable prodrug to the active agent.
(§2) Kinetics were determined by a modification of the coupled assay of Kuefner, et al (1989) Biochemistry 28 2288-2297 in which the product MTX is converted by excess carboxypeptidase G to the pteroate of MTX. In this assay the reaction is followed spectrophotometrically at 315 nm; at this wavelength the change in molar absorbtivity for the coupled reaction was determined to be 9.57 mM^-1 cm^-1. Assays were performed at 25° C. in 25 mM tris-HCl, 100 mM NaCl, pH 7.4. Prodrugs were preincubated at 25° C. with buffer and 17 milliunits of Sigma #C-9658 carboxypeptidase G in 1 ml total volume. Assay was initiated with carboxypeptidase A or the appropriate mutant. Initial velocities were obtained, and standard Michaelis-Menten calculations were used to determine kinetic constants (in Biochemistry, Lehninger, A. L. 1970, Worth Publishers, Inc, NY).

[3] = tested on: 268ala; assay: Enzyme kinetics of prodrugs with 268ala mutant of human CPA1 (coupled assay); format: biochemical; details: 25° C., pH 7.4
Excerpt: as §1, §2

[4] = target: T1, wild type human carboxypeptidase A1 (Homo sapiens, UniProt P15085); assay: Enzyme kinetics of prodrugs with wild type human carboxypeptidase A1 (coupled assay); format: biochemical
T1 sequence (P15085 111-419): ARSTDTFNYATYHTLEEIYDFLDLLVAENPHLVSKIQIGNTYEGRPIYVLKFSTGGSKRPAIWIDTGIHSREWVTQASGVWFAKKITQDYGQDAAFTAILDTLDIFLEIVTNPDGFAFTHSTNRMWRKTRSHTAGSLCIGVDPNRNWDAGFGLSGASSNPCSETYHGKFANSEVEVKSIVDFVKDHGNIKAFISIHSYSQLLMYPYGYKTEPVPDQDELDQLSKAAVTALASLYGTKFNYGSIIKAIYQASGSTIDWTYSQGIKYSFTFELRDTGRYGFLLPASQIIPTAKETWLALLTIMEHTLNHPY
Excerpt: as §1, §2

[5] = tested on: mutant enzyme; assay: Substrate behaviour with mutant enzyme; format: biochemical, human
Excerpt: This type of compound is not useful for ADEPT.

[6] = in vivo; details: mouse, iv
[7] = CECUM, 30 min, 50 mg/kg i.p. or i.v., CD-1 nude mice
[8] = KIDNEY, 30 min, 50 mg/kg i.p. or i.v., CD-1 nude mice
[9] = KIDNEY, 120 min, 50 mg/kg i.p. or i.v., CD-1 nude mice
[10] = LARGE INTESTINE, 30 min, 50 mg/kg i.p. or i.v., CD-1 nude mice
[11] = LARGE INTESTINE, 120 min, 50 mg/kg i.p. or i.v., CD-1 nude mice
[12] = LIVER, 30 min, 50 mg/kg i.p. or i.v., CD-1 nude mice
[13] = LIVER, 120 min, 50 mg/kg i.p. or i.v., CD-1 nude mice
[14] = SMALL INTESTINE, 30 min, 50 mg/kg i.p. or i.v., CD-1 nude mice
[15] = SPLEEN, 30 min, 50 mg/kg i.p. or i.v., CD-1 nude mice
[16] = TUMOR, 30 min, 50 mg/kg i.p. or i.v., CD-1 nude mice
[17] = mouse, cecum, 50 mg/kg, CECUM, 30 min, 50 mg/kg i.p. or i.v., CD-1 nude mice, read-out: stability: percentage of material observed as intact prodrug, cecum
[18] = mouse, kidney, 50 mg/kg, KIDNEY, 30 min, 50 mg/kg i.p. or i.v., CD-1 nude mice, read-out: stability: percentage of material observed as intact prodrug, kidney
[19] = mouse, large intestine, 50 mg/kg, LARGE INTESTINE, 30 min, 50 mg/kg i.p. or i.v., CD-1 nude mice, read-out: stability: percentage of material observed as intact prodrug, large intestine
[20] = mouse, large intestine, 50 mg/kg, LARGE INTESTINE, 120 min, 50 mg/kg i.p. or i.v., CD-1 nude mice, read-out: stability: percentage of material observed as intact prodrug, large intestine
[21] = mouse, liver, 50 mg/kg, LIVER, 30 min, 50 mg/kg i.p. or i.v., CD-1 nude mice, read-out: stability: percentage of material observed as intact prodrug, liver (converted)
[22] = mouse, liver, 50 mg/kg, LIVER, 120 min, 50 mg/kg i.p. or i.v., CD-1 nude mice, read-out: stability: percentage of material observed as intact prodrug, liver
[23] = mouse, plasma, 50 mg/kg, PLASMA, 30 min, 50 mg/kg i.p. or i.v., CD-1 nude mice, read-out: concentration of prodrug in plasma
[24] = mouse, plasma, 50 mg/kg, PLASMA, 30 min, 50 mg/kg i.p. or i.v., CD-1 nude mice, read-out: stability: percentage of material observed as intact prodrug, plasma
[25] = mouse, small intestine, 50 mg/kg, SMALL INTESTINE, 30 min, 50 mg/kg i.p. or i.v., CD-1 nude mice, read-out: stability: percentage of material observed as intact prodrug, small intestine
[26] = mouse, small intestine, 50 mg/kg, SMALL INTESTINE, 120 min, 50 mg/kg i.p. or i.v., CD-1 nude mice, read-out: stability: percentage of material observed as intact prodrug, small intestine
[27] = mouse, spleen, 50 mg/kg, SPLEEN, 30 min, 50 mg/kg i.p. or i.v., CD-1 nude mice, read-out: stability: percentage of material observed as intact prodrug, spleen
[28] = mouse, tumor, 50 mg/kg, TUMOR, 30 min, 50 mg/kg i.p. or i.v., CD-1 nude mice, read-out: stability: percentage of material observed as intact prodrug, tumor

Row | Compound | concentration of prodrug in cecum [1, 7] | concentration of prodrug in kidney [1, 8] | concentration of prodrug in kidney [1, 9] | concentration of prodrug in large intestine [1, 10] | concentration of prodrug in large intestine [1, 11] | concentration of prodrug in liver [1, 12] | concentration of prodrug in liver [1, 13] | concentration of prodrug in small intestine [1, 14] | concentration of prodrug in spleen [1, 15] | concentration of prodrug in tumor [1, 16] | stability in vivo (in words) ([1]; 50 mg/kg) | remaining at 0.5 h [1, 17] | remaining at 0.5 h [1, 18] | remaining at 0.5 h [1, 19] | remaining at 2 h [1, 20] | remaining at 0.5 h [1, 21] | remaining at 2 h [1, 22] | concentration at 0.5 h [1, 23] | remaining at 0.5 h [1, 24] | remaining at 0.5 h [1, 25] | further results
1 | CN(Cc1cnc2nc(N)nc(N)c2n1)c1ccc(C(=O)N[C@@H](CCC(=O)O)C(=O)N[C@@H](Cc2ccccc2)C(=O)O)cc1 [Prodrug 10, N-(4-(((2,4-diamino-6-pteridinyl)methyl)methylamino)benzoyl)-L-glutam-1-yl-L-pheylalanine, reference compound] | 3.0 nmol/g | 26.9 nmol/g | 0.0 nmol/g | 19.3 nmol/g | 1.1 nmol/g | 335.1 nmol/g | 0.6 nmol/g | 17.3 nmol/g | 19.9 nmol/g | 3.0 nmol/g | not stable in vivo | 65% | 100% | 65.3% | 21.6% | 94.4% | 7.55% | 17.8 µM | 30.2% | 16% | concentration at 2 h ([1]; mouse, plasma, 50 mg/kg, PLASMA, 120 min, 50 mg/kg i.p. or i.v., CD-1 nude mice, read-out: concentration of prodrug in plasma): 1.1 µM; remaining at 2 h ([1]; mouse, plasma, 50 mg/kg, PLASMA, 120 min, 50 mg/kg i.p. or i.v., CD-1 nude mice, read-out: stability: percentage of material observed as intact prodrug, plasma): 2.1%; remaining at 2 h [1, 26]: 0%; remaining at 0.5 h [1, 27]: 80.4%; remaining at 0.5 h [1, 28]: 65%; Km [2]: 0.3 µM; kcat [2]: 2.2 s⁻¹; Km [3]: 0.9 µM; kcat [3]: 2 s⁻¹; substrate for wild type CPA (in words) [4]: good substrate
2 | CN(Cc1cnc2nc(N)nc(N)c2n1)c1ccc(C(=O)N[C@@H](CCC(=O)O)C(=O)N[C@@H](Cc2cccc(C3CCC3)c2)C(=O)O)cc1 [Prodrug 11] | 4.5 nmol/g | 7.3 nmol/g | 3.0 nmol/g | 2.7 nmol/g | 4.4 nmol/g | 53.8 nmol/g | 47.8 nmol/g | 301.3 nmol/g | 2.7 nmol/g | 4.8 nmol/g | stable in vivo | 100% | 83.5% | 74.5% | 85% | 81.3% | 73.3% | 22.2 µM | 97.1% | 86.7% | concentration of prodrug in cecum ([1]; CECUM, 120 min, 50 mg/kg i.p. or i.v., CD-1 nude mice): 0.8 nmol/g; concentration of prodrug in feces ([1]; FECES, 30 min, 50 mg/kg i.p. or i.v., CD-1 nude mice): 426.8 nmol/g; concentration of prodrug in feces ([1]; FECES, 120 min, 50 mg/kg i.p. or i.v., CD-1 nude mice): 389.8 nmol/g; concentration of prodrug in small intestine ([1]; SMALL INTESTINE, 120 min, 50 mg/kg i.p. or i.v., CD-1 nude mice): 140.0 nmol/g; concentration of prodrug in tumor ([1]; TUMOR, 120 min, 50 mg/kg i.p. or i.v., CD-1 nude mice): 2.4 nmol/g; remaining at 2 h ([1]; mouse, cecum, 50 mg/kg, CECUM, 120 min, 50 mg/kg i.p. or i.v., CD-1 nude mice, read-out: stability: percentage of material observed as intact prodrug, cecum): 100%; remaining at 0.5 h ([1]; mouse, feces, 50 mg/kg, FECES, 30 min, 50 mg/kg i.p. or i.v., CD-1 nude mice, read-out: stability: percentage of material observed as intact prodrug, feces (converted)): 92.3%; remaining at 2 h ([1]; mouse, feces, 50 mg/kg, FECES, 120 min, 50 mg/kg i.p. or i.v., CD-1 nude mice, read-out: stability: percentage of material observed as intact prodrug, feces): 67.9%; remaining at 2 h ([1]; mouse, kidney, 50 mg/kg, KIDNEY, 120 min, 50 mg/kg i.p. or i.v., CD-1 nude mice, read-out: stability: percentage of material observed as intact prodrug, kidney): 82.3%; remaining at 2 h [1, 26]: 67.7%; remaining at 0.5 h [1, 27]: 96.5%; remaining at 0.5 h [1, 28]: 100%; remaining at 2 h ([1]; mouse, tumor, 50 mg/kg, TUMOR, 120 min, 50 mg/kg i.p. or i.v., CD-1 nude mice, read-out: stability: percentage of material observed as intact prodrug, tumor): 88.1%; substrate for a mutant enzyme (in words) [5]: good substrates for a mutant enzyme; substrate for wild type CPA (in words) [4]: not for the wild type enzyme
3 | CN(Cc1cnc2nc(N)nc(N)c2n1)c1ccc(C(=O)N[C@@H](CCC(=O)O)C(=O)N[C@@H](Cc2cccc(C3CCCC3)c2)C(=O)O)cc1 |  |  |  |  |  |  |  |  |  |  |  |  |  |  |  |  |  |  |  |  | Km [2]: 15 µM; kcat [2]: 1.4 s⁻¹; Km [3]: 31 µM; kcat [3]: 0.001 s⁻¹; kcat (symbol ND) ([4]; Human CPA1, rate too slow to assay): ND (not determined; rate to slow assay. kcat ≤ 0.0005/sec.); MTD [6]: > 40 mg/kg; NOAEL [6]: ≥ 40 mg/kg
